Reference: US7417162B2, “Oily ingredient for cosmetic preparation and cosmetic preparation” (Kyowa Yuka Co., Ltd., priority 2001, dated 2008)

Assay: Test for solubility of a UV-A absorber in the oil
Assay type: physicochemical
Conditions: for Solubility of a UV-A absorber: UV-A absorber dissolved to saturation in the compound
Protocol: Then, absorbance (A) of a peak observed near 350 nm was measured. Solubility was figured out from a value calculated by the following equation and a weight of a sample prepared. The measurement temperatures are at room temperature ([…]) and 50° C.

Solubility of a UV-A absorber (50° C.): 40.7 g/100 g
Solubility of the UV-A absorber, in words (in comparison to comparative compound 1): excellent
Solubility of a UV-A absorber (room temperature (25° C.)): 23.1 g/100 g
Compound: CCC(CC(CC)C(=O)OC)C(=O)OC (stereo not drawn) [Compound 3, dimethyl 2,4-diethylglutarate]
